Results: ChEMBL document CHEMBL4699417, “Leishmania infantum isolates exhibit high infectivity and reduced susceptibility to amphotericin B” (RSC Med Chem, 2020)

Tests used:
[1] = test system: Leishmania infantum; experiment: Antileishmanial activity against promastigote form of Leishmania infantum MCAN_UY_2015_bPL7 isolate assessed as decrease in parasite viability measured after 72 hrs by resazurin assay
[2] = test system: Leishmania infantum; experiment: Antileishmanial activity against promastigote form of Leishmania infantum MCAN_UY_2015_gCH2 isolate assessed as decrease in parasite viability measured after 72 hrs by resazurin assay
[3] = test system: Leishmania infantum; experiment: Antileishmanial activity against promastigote form of Leishmania infantum MCAN_UY_2015_mCO8 isolate assessed as decrease in parasite viability measured after 72 hrs by resazurin assay
[4] = test system: Leishmania infantum; experiment: Antileishmanial activity against promastigote form of Leishmania infantum MCAN_UY_2015_gPL8 isolate assessed as decrease in parasite viability measured after 72 hrs by resazurin assay
[5] = test system: Leishmania infantum; experiment: Antileishmanial activity against promastigote form of Leishmania infantum MCAN_UY_2015_bCH11 isolate assessed as decrease in parasite viability measured after 72 hrs by resazurin assay
[6] = test system: Leishmania infantum; experiment: Antileishmanial activity against promastigote form of Leishmania infantum MHOM/BR/2002/LPC-RPV assessed as decrease in parasite viability measured after 72 hrs by resazurin assay
[7] = test system: Leishmania infantum; experiment: Antileishmanial activity against amastigote form of Leishmania infantum MCAN_UY_2015_gPL8 isolate assessed as decrease in parasite viability measured after 72 hrs by resazurin assay; type: functional, organism-based
[8] = test system: Leishmania infantum; experiment: Antileishmanial activity against amastigote form of Leishmania infantum MCAN_UY_2015_gCH2 isolate assessed as decrease in parasite viability measured after 72 hrs by resazurin assay; type: functional, organism-based
[9] = test system: Leishmania infantum; experiment: Antileishmanial activity against amastigote form of Leishmania infantum MCAN_UY_2015_bCH11 isolate assessed as decrease in parasite viability measured after 72 hrs by resazurin assay; type: functional, organism-based
[10] = test system: Leishmania infantum; experiment: Antileishmanial activity against amastigote form of Leishmania infantum MCAN_UY_2015_bPL7 isolate assessed as decrease in parasite viability measured after 72 hrs by resazurin assay; type: functional, organism-based
[11] = test system: Leishmania infantum; experiment: Antileishmanial activity against amastigote form of Leishmania infantum MHOM/BR/2002/LPC-RPV assessed as decrease in parasite viability measured after 72 hrs by resazurin assay; type: functional, organism-based
[12] = test system: Leishmania infantum; experiment: Antileishmanial activity against amastigote form of Leishmania infantum MCAN_UY_2015_mCO8 isolate assessed as decrease in parasite viability measured after 72 hrs by resazurin assay; type: functional, organism-based

Compound `C[C@@H]1[C@H](O)[C@@H](C)/C=C/C=C/C=C/C=C/C=C/C=C/C=C/[C@H](O[C@@H]2O[C@H](C)[C@@H](O)[C@H](N)[C@@H]2O)C[C@@H]2O[C@](O)(C[C@@H](O)C[C@@H](O)[C@H](O)CC[C@@H](O)C[C@@H](O)CC(=O)O[C@H]1C)C[C@H](O)[C@H]2C(=O)O` [AMPHOTERICIN B] has an IC50 [1] of 24.9 µM, an IC50 [2] of 24.8 µM and an IC50 [3] of 12.7 µM. For the same compound, the IC50 [4] was 24.4 µM, the IC50 [5] was 24.6 µM and the IC50 [6] was 6.5 µM.

For `CC[C@H](C)C(=O)O[C@H]1C[C@@H](C)C=C2C=C[C@H](C)[C@H](CC[C@@H]3C[C@@H](O)CC(=O)O3)[C@H]21` [LOVASTATIN], the IC50 [1] was 25.3 µM, the IC50 [2] was 25.3 µM and the IC50 [3] was 25.4 µM. The IC50 [4] was 25.4 µM, the IC50 [5] was 25.3 µM and the IC50 [6] was 12.9 µM.

`CCCCCCCCCCCCCCCCOP(=O)([O-])OCC[N+](C)(C)C` [MILTEFOSINE] showed an IC50 [1] of 3.6 µM, an IC50 [2] of 4.1 µM and an IC50 [3] of 3.4 µM. The IC50 [4] was 4.1 µM, the IC50 [5] was 3.8 µM and the IC50 [6] was 5.3 µM.

`CC1CS(=O)(=O)CCN1/N=C/c1ccc([N+](=O)[O-])o1` (stereo not given) [NIFURTIMOX] showed an IC50 [1] of 6.5 µM, an IC50 [2] of 6.7 µM and an IC50 [3] of 6.7 µM. The IC50 [4] was 6 µM, the IC50 [5] was 6.5 µM and the IC50 [6] was 6.3 µM.

With MEGLUMINE ANTIMONATE the IC50 [7] was 50.1 µM, the IC50 [8] was 50.4 µM and the IC50 [9] was 50.5 µM. The IC50 [10] was 50.2 µM, the IC50 [11] was 50.1 µM and the IC50 [12] was 51 µM.
